In US8455522B2, “Benzoxazolone derivatives as aldosterone synthase inhibitors” (Novartis AG, priority 2009, dated 2013):

Key:
CYP11B1 = biological target: T1, CYP11B1 (Homo sapiens, UniProt P15538); test: Cortisol cell secretion in NCI-H295R cells (CYP11B1 activity); type: cell-based; conditions: compound at 1 μM; for inhibition at 1 µM: NCI-H295R, read-out: Cortisol cell secretion (% Inhib. @ 1 μM)
T1 construct: the NCI-H295R cells have Cyp11 B1 (steroid 11 β-hydroxylase); host or cells: NCI-H295R
T1 sequence (P15538 25-503): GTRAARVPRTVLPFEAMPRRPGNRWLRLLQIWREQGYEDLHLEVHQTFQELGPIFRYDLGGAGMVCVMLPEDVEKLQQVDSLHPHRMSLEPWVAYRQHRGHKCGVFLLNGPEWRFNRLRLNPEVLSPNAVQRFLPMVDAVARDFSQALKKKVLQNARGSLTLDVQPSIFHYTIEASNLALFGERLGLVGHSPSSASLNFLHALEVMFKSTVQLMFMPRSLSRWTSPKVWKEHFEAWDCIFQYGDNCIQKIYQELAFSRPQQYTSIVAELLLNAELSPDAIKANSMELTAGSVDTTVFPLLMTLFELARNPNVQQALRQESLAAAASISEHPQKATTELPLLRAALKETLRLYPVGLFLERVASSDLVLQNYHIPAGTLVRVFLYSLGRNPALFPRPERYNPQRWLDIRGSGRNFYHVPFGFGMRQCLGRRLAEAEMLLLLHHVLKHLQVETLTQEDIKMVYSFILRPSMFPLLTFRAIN
Excerpt: The in vitro inhibitory activities for CYP1B1 can be determined by the following assay.
The cell line NCI-H295R was originally isolated from an adrenocortical carcinoma and has been characterized in the literature through the stimulable secretion of steroid hormones and the presence of the enzymes essential for steroidogenesis. Thus, the NCI-H295R cells have Cyp11 B1 (steroid 11 β-hydroxylase). The cells show the physiological property of zonally undifferentiated human foetal adrenocortical cells which, however, have the capacity to produce the steroid hormones which are formed in the three, phenotypically distinguishable zones in the adult adrenal cortex.
The NCI-H295R cells (American Type Culture Collection, ATCC, Rockville, Md., USA) are grown in Dulbeoco's Modified Eagle'Ham F-12 Medium (DME/F12), which has been supplemented with Ulroser SF Serum (Soprachem, Geigy-Saint-Christophe, France), insulin, transferrin, selenite (I-T-S, Becton Dickinson Biosiences, Franklin lakes. NJ, USA) and antibiotics in 75 cm^2 cell culture vessels at 37° C. and in a 95% air-5% carbon dioxide atmosphere. The cells are subsequently transferred for colony formation into a 24-well incubation vessel. They are cultivated there in DME/F12 medium, which is now supplemented with 0.1% bovine serum instead of Ultroser SF for 24 hours. The experiment is initiated by cultivating the cells in DME/F12 medium which is supplemented with 0.1% bovine serum albumin and test compound, in the presence or absence of cell stimulants, for 72 hours. The test substance is added in a concentration range from 0.2 nanomolar to […]. Cell stimulants which can be used are angiotensin II (1 D or 100 nanomolar), potassium ions (16 millimolar), forskolin (10 micromolar) or a combination of two stimulants.
The excretion of aldosterone, cortisol, corticosterone and estradiol/estrone into the culture medium can be detected and quantified by commercially available, specific monoclonal antibodies in radioimmunoassays in accordance with the manufacturer's instructions.
(§1) Inhibition of the release of certain steroids can be used as a measure of the respective enzyme inhibition by the added test compounds. The dose-dependent inhibition of enzymic activity by a compound is calculated by means of an inhibition plot which is characterized by an IC50.
The inhibition activity of cortisol production (CYP11B1 activity) can also be expressed in percentage inhibition (% inhibition) at a given concentration (e.g. % inhibition at 1 μM), which is the cortisol level when cell is treated with the given concentration of a compound of the invention (e.g. concentration of 1 μM) versus the cortisol excretion when cell is free of the compound of the invention. % inhibition cortisol production=[(Y′−X′)/Y′]×100 wherein X′ is the level of cortisol when the cell is treated with a compound of Formula I; and Y′ is the level of cortisol when the cell is free of compound of Formula I.

aldosterone synthase = biological target: T2, aldosterone synthase (Homo sapiens, UniProt P19099); test: Aldosterone cell secretion in NCI-H295R cells (aldosterone synthase inhibition, SPA); type: cell-based; conditions: human adrenocortical carcinoma NCI-H295R cells, 1 μM Ang II, 24 hr
T2 construct: host or cells: NCI-H295R
T2 sequence (P19099 25-503): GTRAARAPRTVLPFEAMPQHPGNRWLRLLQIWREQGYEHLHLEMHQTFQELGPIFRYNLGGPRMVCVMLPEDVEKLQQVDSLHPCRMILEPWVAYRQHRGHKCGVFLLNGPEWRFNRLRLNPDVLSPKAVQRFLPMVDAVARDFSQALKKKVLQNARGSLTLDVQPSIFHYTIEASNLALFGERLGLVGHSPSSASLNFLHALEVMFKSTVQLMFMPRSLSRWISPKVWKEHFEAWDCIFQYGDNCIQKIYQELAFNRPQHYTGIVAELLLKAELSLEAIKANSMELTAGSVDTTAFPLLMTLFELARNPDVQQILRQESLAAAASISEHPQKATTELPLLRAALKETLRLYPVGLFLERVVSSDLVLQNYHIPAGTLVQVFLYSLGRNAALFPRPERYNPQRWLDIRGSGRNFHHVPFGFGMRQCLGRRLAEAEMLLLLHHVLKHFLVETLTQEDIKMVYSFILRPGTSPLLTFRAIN
Excerpt: In particular, the aldosterone synthase inhibitory activities in vitro can be determined by the following assay.
Human adrenocortical carcinoma NCI-H295R cell line was obtained from American Type Culture Collection (Manassas, Va.). Insulin/transferrin/selenium (ITS)-A supplement (100×). DMEM/F-12, antibiotic/antimycotic (100×), and fetal bovine serum (FBS) were purchased from Invitrogen (Carlsbad, Calif.). Anti-mouse PVT scintillation proximity assay (SPA) beads and NBS 96-well plates were obtained from GE Health Sciences (Piscataway, N.J.) and Corning (Acton, Mass.), respectively. Solid black 96-well flat bottom plates were purchased from Costar (Corning, N.Y.). Aldosterone and angiotensin (Ang II) were purchased from Sigma (St. Louis, Mo.). D-[1,2,6,7-^3H(N)]aldosterone was acquired from PerkinElmer (Boston, Mass.). Nu-serum was a product of BD Biosciences (Franklin Lakes, N.J.). The NADPH regenerating system, dibenzylfluorescein (DBF), and human aromatase Supersomes® were obtained from Gentest (Woburn, Mass.).
For in vitro measurement of aldosterone activity, human adrenocortical carcinoma NCI-H295R cells are seeded in NBS 96-well plates at a density of 25,000 cells/well in 100 μl of a growth medium containing DMEM/F12 supplemented with 10% FCS, 2.5% Nu-serum, 1 μg ITS/ml, and 1× antibiotic/antimycotic. The medium is changed after culturing for 3 days at 37° C. under an atmosphere of 5% CO2/95% air. On the following day, cells are rinsed with 100 μl of phosphate-buffered saline (PBS) and incubated with 100 μl of treatment medium containing 1 μM Ang II and a compound at different concentrations in quadruplicate wells at 37° C. for 24 hr. At the end of incubation, 50 μl of medium is withdrawn from each well for measurement of aldosterone production by an SPA using mouse anti-aldosterone monoclonal antibodies.
Measurement of aldosterone activity can also be performed using a 96-well plate format. Each test sample is incubated with 0.02 μCi of D-[1,2,6,7-^3H(N)]aldosterone and 0.3 μg of anti-aldosterone antibody in PBS containing 0.1% Triton X-100, 0.1% bovine serum albumin, and 12% glycerol in a total volume of 200 μl at room temperature for 1 hr. Anti-mouse PVT SPA beads (50 μl) are then added to each well and incubated overnight at room temperature prior to counting in a Microbeta plate counter. The amount of aldosterone in each sample is calculated by comparing with a standard curve generated using known quantities of the hormone.
as §1
The IC50 values for active test compounds are ascertained by a simple linear regression analysis in order to construct inhibition plots without data weighting. The inhibition plot is calculated by fitting a 4-parameter logistic function to the raw data points using the least squares method. The equation of the 4-parameter logistic function is calculated as follows: Y=(d−a)/((1+(x/c)b))+a, where: a=minimum data level, b=gradient, I […], d=maximum data level, x=inhibitor concentration.
The inhibition activity of aldosterone production can also be expressed in percentage inhibition (% inhibition) at a given concentration (e.g. % inhibition at 1 μM), which is the aldosterone level when the cell is treated with the given concentration of a compound of this invention (e.g. concentration of 1 μM) versus the aldosterone excretion when cell is free of the compound of the invention: % inhibition aldosterone production=[(Y−X)/Y]×100 wherein X is the level of aldosterone when the cell is treated with a compound of Formula I; and Y is the level of aldosterone when the cell is free of compound of Formula I.

Cn1c(=O)oc2ccc(-c3cncc(C(O)C(F)(F)F)c3)cc21 (stereo not drawn) [Example 19, 3-methyl-5-(5-(2,2,2-trifluoro-1-hydroxyethyl)pyridin-3-yl)benzo[d]oxazol-2(3H)-one]
inhibition at 1 µM (CYP11B1): 95%
IC50 (aldosterone synthase): 1.4 nM

Cn1c(=O)oc2ccc(-c3cncc(C(O)C4CC4)c3)cc21 (single isomer, unassigned) [Example 13 Enantiomer 1, 5-(5-(cyclopropyl(hydroxy)methyl)pyridin-3-yl)-3-methylbenzo[d]oxazol-2(3H)-one]
inhibition at 1 µM (CYP11B1): 64%
IC50 (aldosterone synthase): 28 nM

Cn1c(=O)oc2ccc(-c3cnccc3C(O)c3ccc(F)cc3)cc21 (single isomer, unassigned) [Example 8 Enantiomer 2, 5-(4-((4-fluorophenyl)(hydroxy)methyl)pyridin-3-yl)-3-methylbenzo[d]oxazol-2(3H)-one]
Cortisol cell secretion (% Inhib. @ 1 μM) (CYP11B1; 1 µM): 73%
IC50 (aldosterone synthase): 66 nM
